Assay results published in patent US12172990B2 (Constellation Pharmaceuticals, Inc., priority 2018, dated 2024).
pIC50: −log10 of the molar value.

Assays:
full length human TREX1 = full length human TREX1 (Homo sapiens (Human), UniProt Q9NSU2); experiment: TREX1 Biochemical Assay (fluorescence assay measuring degradation of dsDNA substrate); conditions: 150 pM TREX1, 60 nM dsDNA substrate, 25 minutes at room temperature
Summary of the method: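 His-Tev-tagged full-length human TREX1 expressed in E. coli, 150 pM final, with 60 nM TEX615/quencher-labelled 9-mer dsDNA in Tris pH 7.4, NaCl, DTT, BSA, Tween-20, MgCl2 and 1.0% DMSO; 25 min at room temperature, EDTA-quenched. Fluorescence 615 nm (excitation 570 nm); 10-point IC50 by four-parameter fit against pre-quenched and no-inhibitor controls.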

[1] = biological target: human TREX2 (residues M44-A279) (Homo sapiens (Human), UniProt Q9BQ50); experiment: TREX2 Biochemical Assay (fluorescence assay measuring degradation of dsDNA substrate); conditions: 2.5 nM TREX2, 60 nM dsDNA substrate, 25 minutes at room temperature
Summary of the method: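 Final conditions: 2.5 nM His-Tev-tagged TREX2 (E. coli-expressed), 60 nM fluorophore/quencher-labelled dsDNA, 50 mM Tris pH 7.4, 150 mM NaCl, 100 mM MgCl2, 1% DMSO; 10-point compound dose-response. Incubated 25 min at room temperature, then EDTA-quenched; fluorescence read at ex 570/em 615 nm. IC50 from four-parameter fit against pre-quenched and no-inhibitor controls.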

Chain of full length human TREX1 (Q9NSU2 whole entry): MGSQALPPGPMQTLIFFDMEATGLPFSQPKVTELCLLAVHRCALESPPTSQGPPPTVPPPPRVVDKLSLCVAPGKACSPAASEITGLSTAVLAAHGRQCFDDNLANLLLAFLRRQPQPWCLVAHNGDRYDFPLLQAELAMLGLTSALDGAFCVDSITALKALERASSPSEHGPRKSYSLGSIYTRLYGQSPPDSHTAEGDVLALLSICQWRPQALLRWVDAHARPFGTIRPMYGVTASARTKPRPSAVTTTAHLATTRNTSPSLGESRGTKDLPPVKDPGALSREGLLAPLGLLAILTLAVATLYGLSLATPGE
Chain of human TREX2 (residues M44-A279) (Q9BQ50 whole entry, the tested form may be a part): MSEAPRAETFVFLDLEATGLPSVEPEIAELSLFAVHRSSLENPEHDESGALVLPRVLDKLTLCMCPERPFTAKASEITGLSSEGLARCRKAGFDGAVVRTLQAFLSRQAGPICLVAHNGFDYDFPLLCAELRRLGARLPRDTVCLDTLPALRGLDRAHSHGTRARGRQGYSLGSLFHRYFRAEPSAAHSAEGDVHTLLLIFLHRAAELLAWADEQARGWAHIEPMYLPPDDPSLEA

| pIC50 (full length human TREX1) | pIC50 [1] | SMILES |
| --- | --- | --- |
| 6.00 to 7.00 | 5.00 to 6.00 | Cn1c(C2CCCN(C(=O)Cc3ccccc3)C2)nc(C(=O)Nc2cnoc2)c(O)c1=O (centres unmarked) [Example 61, 5-hydroxy-N-(isoxazol-4-yl)-1-methyl-6-oxo-2-(1-(2-phenylacetyl)piperidin-3-yl)-1,6-dihydropyrimidine-4-carboxamide] |
| 6.00 to 7.00 | 5.00 to 6.00 | Cn1c(C2CCCN(C(=O)c3cccnc3)C2)nc(C(=O)Nc2cnoc2)c(O)c1=O (centres unmarked) [Example 62, 5-hydroxy-N-(isoxazol-4-yl)-1-methyl-2-(1-nicotinoylpiperidin-3-yl)-6-oxo-1,6-dihydropyrimidine-4-carboxamide] |
| 6.00 to 7.00 | 5.00 to 6.00 | Cn1c(C2CCCN(C(=O)c3ccncc3)C2)nc(C(=O)Nc2cnoc2)c(O)c1=O (centres unmarked) [Example 63, 5-hydroxy-2-(1-isonicotinoylpiperidin-3-yl)-N-(isoxazol-4-yl)-1-methyl-6-oxo-1,6-dihydropyrimidine-4-carboxamide] |
| 6.00 to 7.00 | 4.00 to 5.00 | CC(=O)N1CCCC(c2nc(C(=O)Nc3cnoc3)c(O)c(=O)n2C)C1 (centres unmarked) [Example 64, 2-(1-acetylpiperidin-3-yl)-5-hydroxy-N-(isoxazol-4-yl)-1-methyl-6-oxo-1,6-dihydropyrimidine-4-carboxamide] |
| 6.00 to 7.00 | 5.00 to 6.00 | Cn1c(C2CCCN(C(=O)Nc3ccccc3)C2)nc(C(=O)Nc2cnoc2)c(O)c1=O (centres unmarked) [Example 65, 5-hydroxy-N-(isoxazol-4-yl)-1-methyl-6-oxo-2-(1-(phenylcarbamoyl)piperidin-3-yl)-1,6-dihydropyrimidine-4-carboxamide] |
| 6.00 to 7.00 | 4.00 to 5.00 | Cn1c(-c2ccccc2-c2cccnc2)nc(C(=O)Nc2cnoc2)c(O)c1=O [Example 66, 5-hydroxy-N-(isoxazol-4-yl)-1-methyl-6-oxo-2-(2-(pyridin-3-yl)phenyl)-1,6-dihydropyrimidine-4-carboxamide] |
| 5.00 to 6.00 | 4.00 to 5.00 | Cn1c(-c2ccccc2-c2ccncc2)nc(C(=O)Nc2cnoc2)c(O)c1=O [Example 67, 5-hydroxy-N-(isoxazol-4-yl)-1-methyl-6-oxo-2-(2-(pyridin-4-yl)phenyl)-1,6-dihydropyrimidine-4-carboxamide] |
| > 7.00 | 5.00 to 6.00 | Cn1c(-c2cc(Br)ccc2OCCO)nc(C(=O)Nc2cnoc2)c(O)c1=O [Example 70, 2-(5-bromo-2-(2-hydroxyethoxy)phenyl)-5-hydroxy-N-(isoxazol-4-yl)-1-methyl-6-oxo-1,6-dihydropyrimidine-4-carboxamide] |
| 6.00 to 7.00 | 4.00 to 5.00 | Cn1nc(CCO)c(-c2nc(C(=O)Nc3cnoc3)c(O)c(=O)n2C)n1 [Example 73, 5-hydroxy-2-(5-(2-hydroxyethyl)-2-methyl-2H-1,2,3-triazol-4-yl)-N-(isoxazol-4-yl)-1-methyl-6-oxo-1,6-dihydropyrimidine-4-carboxamide] |
| 5.00 to 6.00 | 4.00 to 5.00 | Cn1nnc(-c2nc(C(=O)Nc3cnoc3)c(O)c(=O)n2C)c1CCO [Example 74, 5-hydroxy-2-(5-(2-hydroxyethyl)-1-methyl-1H-1,2,3-triazol-4-yl)-N-(isoxazol-4-yl)-1-methyl-6-oxo-1,6-dihydropyrimidine-4-carboxamide] |
| < 5.00 | < 4.00 | Cn1c(-c2ccccc2NCCCO)nc(C(=O)Nc2cnoc2)c(O)c1=O [Example 75, 5-hydroxy-2-(2-((3-hydroxypropyl)amino)phenyl)-N-(isoxazol-4-yl)-1-methyl-6-oxo-1,6-dihydropyrimidine-4-carboxamide] |
| 6.00 to 7.00 | 4.00 to 5.00 | Cn1c(-c2ccccc2N[C@H]2C[C@@H](O)C2)nc(C(=O)Nc2cnoc2)c(O)c1=O [Example 76, 5-hydroxy-2-(2-(((1s,3s)-3-hydroxycyclobutyl)amino)phenyl)-N-(isoxazol-4-yl)-1-methyl-6-oxo-1,6-dihydropyrimidine-4-carboxamide] |
| > 7.00 | 5.00 to 6.00 | Cn1c(-c2cccc(Br)c2CCO)nc(C(=O)Nc2cnoc2)c(O)c1=O [Example 78, 2-(3-bromo-2-(2-hydroxyethyl)phenyl)-5-hydroxy-N-(isoxazol-4-yl)-1-methyl-6-oxo-1,6-dihydropyrimidine-4-carboxamide] |
| > 7.00 | 5.00 to 6.00 | C[C@H](Cc1ccccc1)c1nc(C(=O)Nc2cnoc2)c(O)c(=O)n1C [Example 79, (R)-5-hydroxy-N-(isoxazol-4-yl)-1-methyl-6-oxo-2-(1-phenylpropan-2-yl)-1,6-dihydropyrimidine-4-carboxamide] |
| > 7.00 | 5.00 to 6.00 | C[C@@H](Cc1ccccc1)c1nc(C(=O)Nc2cnoc2)c(O)c(=O)n1C [Example 80, (S)-5-hydroxy-N-(isoxazol-4-yl)-1-methyl-6-oxo-2-(1-phenylpropan-2-yl)-1,6-dihydropyrimidine-4-carboxamide] |
| 5.00 to 6.00 | 4.00 to 5.00 | Cn1c([C@H]2CCC[C@@H](NC(=O)c3ccc(Cl)c(Cl)c3)C2)nc(C(=O)Nc2cnoc2)c(O)c1=O [Example 82, 2-((1S,3R)-3-(3,4-dichlorobenzamido)cyclohexyl)-5-hydroxy-N-(isoxazol-4-yl)-1-methyl-6-oxo-1,6-dihydropyrimidine-4-carboxamide] |
| 5.00 to 6.00 | 4.00 to 5.00 | C[C@@H]1CC[C@H](c2nc(C(=O)Nc3cnoc3)c(O)c(=O)n2C)CN1C(=O)c1ccc(Cl)c(Cl)c1 [Example 83, 2-((3S,6R)-1-(3,4-dichlorobenzoyl)-6-methylpiperidin-3-yl)-5-hydroxy-N-(isoxazol-4-yl)-1-methyl-6-oxo-1,6-dihydropyrimidine-4-carboxamide] |
| > 7.00 | 5.00 to 6.00 | C[C@H]1CC[C@H](c2nc(C(=O)Nc3cnoc3)c(O)c(=O)n2C)CN1C(=O)c1ccc(Cl)c(Cl)c1 [Example 84, 2-((3S,6S)-1-(3,4-dichlorobenzoyl)-6-methylpiperidin-3-yl)-5-hydroxy-N-(isoxazol-4-yl)-1-methyl-6-oxo-1,6-dihydropyrimidine-4-carboxamide] |
| 6.00 to 7.00 | 4.00 to 5.00 | Cn1c([C@H]2CCN(C(=O)c3ccc(Cl)cc3)C2)nc(C(=O)Nc2cnoc2)c(O)c1=O [Example 85, (S)-2-(1-(4-chlorobenzoyl)pyrrolidin-3-yl)-5-hydroxy-N-(isoxazol-4-yl)-1-methyl-6-oxo-1,6-dihydropyrimidine-4-carboxamide] |
| 6.00 to 7.00 | 4.00 to 5.00 | Cn1c([C@@H]2CCN(C(=O)c3ccc(Cl)cc3)C2)nc(C(=O)Nc2cnoc2)c(O)c1=O [Example 86, (R)-2-(1-(4-chlorobenzoyl)pyrrolidin-3-yl)-5-hydroxy-N-(isoxazol-4-yl)-1-methyl-6-oxo-1,6-dihydropyrimidine-4-carboxamide] |
| 5.00 to 6.00 | 4.00 to 5.00 | Cn1c(C2CCCN(S(C)(=O)=O)C2)nc(C(=O)Nc2cnoc2)c(O)c1=O (centres unmarked) [Example 87, 5-hydroxy-N-(isoxazol-4-yl)-1-methyl-2-(1-(methylsulfonyl)piperidin-3-yl)-6-oxo-1,6-dihydropyrimidine-4-carboxamide] |
| > 7.00 | 5.00 to 6.00 | Cn1c([C@H]2CCCN(C(=O)c3ccc(F)c(Cl)c3)C2)nc(C(=O)Nc2cnoc2)c(O)c1=O [Example 88, (S)-2-(1-(3-chloro-4-fluorobenzoyl)piperidin-3-yl)-5-hydroxy-N-(isoxazol-4-yl)-1-methyl-6-oxo-1,6-dihydropyrimidine-4-carboxamide] |
| 6.00 to 7.00 | 4.00 to 5.00 | Cn1c([C@H]2CCCN(C(=O)Cc3ccc(F)c(F)c3)C2)nc(C(=O)Nc2cnoc2)c(O)c1=O [Example 91, (S)-2-(1-(2-(3,4-difluorophenyl)acetyl)piperidin-3-yl)-5-hydroxy-N-(isoxazol-4-yl)-1-methyl-6-oxo-1,6-dihydropyrimidine-4-carboxamide] |
| 6.00 to 7.00 | 4.00 to 5.00 | Cn1c([C@H]2CCCN(S(=O)(=O)c3ccc(Cl)c(Cl)c3)C2)nc(C(=O)Nc2cnoc2)c(O)c1=O [Example 92, (S)-2-(1-((3,4-dichlorophenyl)sulfonyl)piperidin-3-yl)-5-hydroxy-N-(isoxazol-4-yl)-1-methyl-6-oxo-1,6-dihydropyrimidine-4-carboxamide] |
| 6.00 to 7.00 | 5.00 to 6.00 | Cn1c(C2CCCN(C(=O)c3cccnc3)C2)nc(C(=O)Nc2cnoc2)c(O)c1=O (centres unmarked) [Example 93, 5-hydroxy-N-(isoxazol-4-yl)-1-methyl-2-(1-nicotinoylpiperidin-3-yl)-6-oxo-1,6-dihydropyrimidine-4-carboxamide] |
| 6.00 to 7.00 | 4.00 to 5.00 | Cn1c(C2CCCN(C(=O)c3cn[nH]c3)C2)nc(C(=O)Nc2cnoc2)c(O)c1=O (centres unmarked) [Example 94, 2-(1-(1H-pyrazole-4-carbonyl)piperidin-3-yl)-5-hydroxy-N-(isoxazol-4-yl)-1-methyl-6-oxo-1,6-dihydropyrimidine-4-carboxamide] |
| 6.00 to 7.00 | 4.00 to 5.00 | CC(C)CNC(=O)N1CCCC(c2nc(C(=O)Nc3cnoc3)c(O)c(=O)n2C)C1 (centres unmarked) [Example 95] |
| 6.00 to 7.00 | 4.00 to 5.00 | CC(C)C(=O)N1CCCC(c2nc(C(=O)Nc3cnoc3)c(O)c(=O)n2C)C1 (centres unmarked) [Example 96, 5-hydroxy-2-(1-isobutyrylpiperidin-3-yl)-N-(isoxazol-4-yl)-1-methyl-6-oxo-1,6-dihydropyrimidine-4-carboxamide] |
